What was measured:
[1] = Thermodynamic solubility, UV–vis of saturated solutions
Experimental: The concentration of the compounds was determined by UV–vis spectrophotometry using stock solutions of the compounds with a known concentration dissolved in pure DMSO and 50% (v/v) DMSO/buffered aqueous solution for the calibration.

[2] = molecular target: RIPK2 (Homo sapiens, UniProt O43353); assay: Kinase panel screen; format: biochemical; details: 10 µM compound
Source text: (§1) Figure 7 (see also Table S4) summarizes the results of this assay as a histogram plotting the percentage of the remaining enzyme activity (x-axis) as a function of added lead compound (HL^8: blue trace, 8: red trace) for each of the 50 enzymes assayed (y-axis). […] Thus, the coordination to copper(II) completely changes the kinase inhibition profile of HL^8.
(§2) Figure 7 Screening of HL^8 and 8 against 50 enzymes: histogram with % remaining activity on the x-axis plotted against the compound identifier (blue trace: HL^8 and red trace: 8) and enzyme identifier on the […]. The screen was carried out at a compound concentration of 10 μM, an enzyme concentration of 50 nM, and an ATP concentration of 100 μM.
(§3) All kinase assays were carried out using Multidrop 384’s at room temperature in a total assay volume of 25.5 μL. To plates containing 0.5 μL of HL^8 and 8, DMSO control or acid blank […], 15 μL of an enzyme mix containing enzyme […], and excess peptide/protein substrate in buffer was added. Compounds were pre-incubated in the presence of the enzyme and peptide/protein substrate for 5 min before initiation of the reaction by addition of 10 μL of ATP (final concentration selected for each kinase at 5, 20, or 50 μM). Assays were carried out for 30 min at room temperature before termination by the addition of 5 μL of orthophosphoric acid. The assay plates were then harvested onto P81 Unifilter Plates by a PerkinElmer Harvester and air dried. The dry Unifilter plates were then sealed on the addition of MicroScint O and were counted in PerkinElmer Topcount scintillation counters.

[3] = molecular target: JAK3 (Homo sapiens, UniProt P52333); assay: Kinase panel screen; format: biochemical; details: 10 µM compound
Source text: as §1, §2, §3

[4] = molecular target: ROCK 2 (Homo sapiens, UniProt O75116); assay: Kinase panel screen; format: biochemical; details: 10 µM compound
Source text: as §1, §2, §3

[5] = molecular target: NEK6 (Homo sapiens, UniProt Q9HC98); assay: Kinase panel screen; format: biochemical; details: 10 µM compound
Source text: as §1, §2, §3

[6] = molecular target: MKK1 (Homo sapiens, UniProt Q02750); assay: Kinase panel screen; format: biochemical; details: 10 µM compound
Source text: as §1, §2, §3

[7] = molecular target: Lck (Homo sapiens, UniProt P06239); assay: Kinase panel screen; format: biochemical; details: 10 µM compound
Source text: as §1, §2, §3

[8] = molecular target: EPH-A2 (Homo sapiens, UniProt P29317); assay: Kinase panel screen; format: biochemical; details: 10 µM compound
Source text: as §1, §2, §3

[9] = molecular target: PKD1 (Homo sapiens, UniProt Q15139); assay: Kinase panel screen; format: biochemical; details: 10 µM compound
Source text: as §1, §2, §3

[10] = molecular target: CHK2 (Homo sapiens, UniProt O96017); assay: Kinase panel screen; format: biochemical; details: 10 µM compound
Source text: as §1, §2, §3

[11] = molecular target: MLK3 (Homo sapiens, UniProt Q16584); assay: Kinase panel screen; format: biochemical; details: 10 µM compound
Source text: as §1, §2, §3

[12] = molecular target: SRPK1 (Homo sapiens, UniProt Q96SB4); assay: Kinase panel screen; format: biochemical; details: 10 µM compound
Source text: as §1, §2, §3

[13] = molecular target: BTK (Homo sapiens, UniProt Q06187); assay: Kinase panel screen; format: biochemical; details: 10 µM compound
Source text: as §1, §2, §3

[14] = molecular target: MARK3 (Homo sapiens, UniProt P27448); assay: Kinase panel screen; format: biochemical; details: 10 µM compound
Source text: as §1, §2, §3

[15] = molecular target: Aurora B (Homo sapiens, UniProt Q96GD4); assay: Kinase panel screen; format: biochemical; details: 10 µM compound
Source text: as §1, §2, §3

[16] = molecular target: IRAK4 (Homo sapiens, UniProt Q9NWZ3); assay: Kinase panel screen; format: biochemical; details: 10 µM compound
Source text: as §1, §2, §3

[17] = molecular target: PRK2 (Homo sapiens, UniProt Q16513); assay: Kinase panel screen; format: biochemical; details: 10 µM compound
Source text: as §1, §2, §3

[18] = molecular target: SmMLCK (Homo sapiens, UniProt Q15746); assay: Kinase panel screen; format: biochemical; details: 10 µM compound
Source text: as §1, §2, §3

[19] = molecular target: MST2 (Homo sapiens, UniProt Q13188); assay: Kinase panel screen; format: biochemical; details: 10 µM compound
Source text: as §1, §2, §3

[20] = molecular target: CAMKKb (Homo sapiens, UniProt Q96RR4); assay: Kinase panel screen; format: biochemical; details: 10 µM compound
Source text: as §1, §2, §3

[21] = molecular target: PAK4 (Homo sapiens, UniProt O96013); assay: Kinase panel screen; format: biochemical; details: 10 µM compound
Source text: as §1, §2, §3

[22] = molecular target: CK1δ (Homo sapiens, UniProt P48730); assay: Kinase panel screen; format: biochemical; details: 10 µM compound
Source text: as §1, §2, §3

[23] = molecular target: EF2K (Homo sapiens, UniProt O00418); assay: Kinase panel screen; format: biochemical; details: 10 µM compound
Source text: as §1, §2, §3

[24] = molecular target: p38a MAPK (Homo sapiens, UniProt Q16539); assay: Kinase panel screen; format: biochemical; details: 10 µM compound
Source text: as §1, §2, §3

[25] = molecular target: TAK1 (Homo sapiens, UniProt O43318); assay: Kinase panel screen; format: biochemical; details: 10 µM compound
Source text: as §1, §2, §3

[26] = molecular target: TrkA (Homo sapiens, UniProt P04629); assay: Kinase panel screen; format: biochemical; details: 10 µM compound
Source text: as §1, §2, §3

[27] = molecular target: HIPK2 (Homo sapiens, UniProt Q9H2X6); assay: Kinase panel screen; format: biochemical; details: 10 µM compound
Source text: as §1, §2, §3

[28] = molecular target: JNK1 (Homo sapiens, UniProt P45983); assay: Kinase panel screen; format: biochemical; details: 10 µM compound
Source text: as §1, §2, §3

[29] = molecular target: RSK1 (Homo sapiens, UniProt Q15418); assay: Kinase panel screen; format: biochemical; details: 10 µM compound
Source text: as §1, §2, §3

[30] = molecular target: PDK1 (Homo sapiens, UniProt O15530); assay: Kinase panel screen; format: biochemical; details: 10 µM compound
Source text: as §1, §2, §3

[31] = molecular target: HER4 (Homo sapiens, UniProt Q15303); assay: Kinase panel screen; format: biochemical; details: 10 µM compound
Source text: as §1, §2, §3

[32] = molecular target: IGF-1R (Homo sapiens, UniProt P08069); assay: Kinase panel screen; format: biochemical; details: 10 µM compound
Source text: as §1, §2, §3

[33] = molecular target: PKBa (Homo sapiens, UniProt P31749); assay: Kinase panel screen; format: biochemical; details: 10 µM compound
Source text: as §1, §2, §3

[34] = molecular target: LKB1 (Homo sapiens, UniProt Q15831); assay: Kinase panel screen; format: biochemical; details: 10 µM compound
Source text: as §1, §2, §3

[35] = molecular target: VEG-FR (Homo sapiens, UniProt P17948); assay: Kinase panel screen; format: biochemical; details: 10 µM compound
Source text: as §1, §2, §3

IGF-1R, sequence (P08069 31-1367): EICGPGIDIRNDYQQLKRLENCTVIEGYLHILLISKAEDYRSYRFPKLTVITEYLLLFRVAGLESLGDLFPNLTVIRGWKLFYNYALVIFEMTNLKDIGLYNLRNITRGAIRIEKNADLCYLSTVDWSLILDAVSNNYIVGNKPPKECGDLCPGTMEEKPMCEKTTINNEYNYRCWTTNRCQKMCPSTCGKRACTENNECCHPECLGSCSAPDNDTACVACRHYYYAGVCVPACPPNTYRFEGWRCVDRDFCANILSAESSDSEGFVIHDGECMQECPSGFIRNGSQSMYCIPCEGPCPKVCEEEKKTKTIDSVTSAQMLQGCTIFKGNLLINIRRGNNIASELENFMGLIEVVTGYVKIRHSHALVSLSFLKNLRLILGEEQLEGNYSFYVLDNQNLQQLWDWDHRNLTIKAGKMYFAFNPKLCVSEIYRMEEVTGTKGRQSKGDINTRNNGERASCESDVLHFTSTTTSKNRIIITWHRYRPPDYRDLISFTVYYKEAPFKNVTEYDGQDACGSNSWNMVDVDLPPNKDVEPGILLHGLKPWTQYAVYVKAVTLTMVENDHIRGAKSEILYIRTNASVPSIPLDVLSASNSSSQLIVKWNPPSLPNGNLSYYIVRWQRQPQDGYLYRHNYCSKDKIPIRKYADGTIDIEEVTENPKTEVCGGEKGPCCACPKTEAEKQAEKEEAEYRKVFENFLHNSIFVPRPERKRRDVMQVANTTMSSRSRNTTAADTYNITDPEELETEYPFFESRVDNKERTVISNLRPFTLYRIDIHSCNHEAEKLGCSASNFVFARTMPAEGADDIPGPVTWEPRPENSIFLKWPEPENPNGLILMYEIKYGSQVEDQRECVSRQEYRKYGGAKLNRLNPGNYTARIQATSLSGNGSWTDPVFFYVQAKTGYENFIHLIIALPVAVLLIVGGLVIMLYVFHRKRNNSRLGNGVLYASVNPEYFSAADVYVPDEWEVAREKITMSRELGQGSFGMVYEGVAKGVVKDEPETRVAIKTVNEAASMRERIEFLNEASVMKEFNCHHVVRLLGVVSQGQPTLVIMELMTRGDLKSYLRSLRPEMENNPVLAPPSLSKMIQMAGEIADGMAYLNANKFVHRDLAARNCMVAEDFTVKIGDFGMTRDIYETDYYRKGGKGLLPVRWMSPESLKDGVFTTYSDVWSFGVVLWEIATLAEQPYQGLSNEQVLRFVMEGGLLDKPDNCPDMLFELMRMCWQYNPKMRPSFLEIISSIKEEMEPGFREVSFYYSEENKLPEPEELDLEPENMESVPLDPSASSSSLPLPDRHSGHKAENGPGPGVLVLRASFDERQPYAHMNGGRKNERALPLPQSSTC
VEG-FR, sequence (P17948 27-1338): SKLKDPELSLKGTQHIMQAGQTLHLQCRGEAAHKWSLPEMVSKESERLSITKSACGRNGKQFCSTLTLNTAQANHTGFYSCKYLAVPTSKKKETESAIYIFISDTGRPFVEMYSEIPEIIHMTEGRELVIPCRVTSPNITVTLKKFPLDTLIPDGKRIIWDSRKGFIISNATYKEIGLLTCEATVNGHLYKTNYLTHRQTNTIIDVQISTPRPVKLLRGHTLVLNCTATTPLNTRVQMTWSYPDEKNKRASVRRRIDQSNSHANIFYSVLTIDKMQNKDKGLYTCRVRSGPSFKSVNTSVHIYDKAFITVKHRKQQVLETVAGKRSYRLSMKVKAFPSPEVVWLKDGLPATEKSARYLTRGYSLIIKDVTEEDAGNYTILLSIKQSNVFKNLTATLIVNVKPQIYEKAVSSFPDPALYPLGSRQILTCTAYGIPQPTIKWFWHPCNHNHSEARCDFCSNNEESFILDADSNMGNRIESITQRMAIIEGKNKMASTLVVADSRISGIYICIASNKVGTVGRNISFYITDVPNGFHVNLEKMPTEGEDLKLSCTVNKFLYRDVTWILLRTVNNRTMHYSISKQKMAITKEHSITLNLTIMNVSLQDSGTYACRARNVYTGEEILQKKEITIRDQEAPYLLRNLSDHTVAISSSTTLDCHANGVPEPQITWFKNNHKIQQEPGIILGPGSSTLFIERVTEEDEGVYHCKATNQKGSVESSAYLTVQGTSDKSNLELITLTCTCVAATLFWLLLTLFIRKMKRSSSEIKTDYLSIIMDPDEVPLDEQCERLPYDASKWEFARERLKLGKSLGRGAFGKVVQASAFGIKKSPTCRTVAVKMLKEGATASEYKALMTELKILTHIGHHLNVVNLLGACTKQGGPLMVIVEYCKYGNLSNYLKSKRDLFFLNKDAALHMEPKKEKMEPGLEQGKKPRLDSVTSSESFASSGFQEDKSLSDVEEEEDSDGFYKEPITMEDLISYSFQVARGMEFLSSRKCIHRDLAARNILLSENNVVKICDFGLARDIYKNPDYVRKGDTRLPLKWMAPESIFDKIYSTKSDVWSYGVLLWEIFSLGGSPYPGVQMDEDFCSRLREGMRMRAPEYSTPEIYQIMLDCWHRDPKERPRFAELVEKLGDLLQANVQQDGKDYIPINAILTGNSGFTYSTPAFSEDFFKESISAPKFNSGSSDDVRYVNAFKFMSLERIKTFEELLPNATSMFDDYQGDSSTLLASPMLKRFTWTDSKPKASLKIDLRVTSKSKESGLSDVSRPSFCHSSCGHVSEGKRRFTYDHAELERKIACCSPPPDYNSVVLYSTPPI
SmMLCK, sequence (Q15746 923-1914): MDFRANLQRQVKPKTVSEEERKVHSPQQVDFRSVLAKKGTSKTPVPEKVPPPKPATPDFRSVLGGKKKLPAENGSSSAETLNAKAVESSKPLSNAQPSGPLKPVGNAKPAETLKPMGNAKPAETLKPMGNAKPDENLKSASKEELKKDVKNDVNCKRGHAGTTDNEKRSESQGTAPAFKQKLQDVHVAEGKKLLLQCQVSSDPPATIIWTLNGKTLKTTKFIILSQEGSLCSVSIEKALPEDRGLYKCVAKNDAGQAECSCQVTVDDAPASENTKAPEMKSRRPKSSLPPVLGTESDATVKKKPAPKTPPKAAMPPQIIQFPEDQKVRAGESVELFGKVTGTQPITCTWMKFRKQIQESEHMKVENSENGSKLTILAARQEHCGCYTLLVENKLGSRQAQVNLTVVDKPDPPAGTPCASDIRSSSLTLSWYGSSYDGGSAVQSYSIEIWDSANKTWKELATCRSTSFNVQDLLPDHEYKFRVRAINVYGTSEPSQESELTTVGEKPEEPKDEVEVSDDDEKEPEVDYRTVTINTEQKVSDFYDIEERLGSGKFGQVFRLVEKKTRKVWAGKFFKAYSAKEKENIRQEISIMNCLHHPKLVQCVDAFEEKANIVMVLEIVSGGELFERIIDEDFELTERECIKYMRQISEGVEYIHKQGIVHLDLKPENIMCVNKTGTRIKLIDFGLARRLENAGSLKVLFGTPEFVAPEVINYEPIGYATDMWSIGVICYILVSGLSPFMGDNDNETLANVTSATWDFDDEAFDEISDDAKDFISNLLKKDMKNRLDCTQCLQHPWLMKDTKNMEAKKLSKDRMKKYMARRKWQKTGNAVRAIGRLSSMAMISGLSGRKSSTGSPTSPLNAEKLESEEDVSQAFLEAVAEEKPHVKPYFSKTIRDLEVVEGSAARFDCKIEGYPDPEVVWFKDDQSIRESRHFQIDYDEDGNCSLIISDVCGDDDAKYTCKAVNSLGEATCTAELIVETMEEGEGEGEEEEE
CHK2, sequence (O96017 whole entry): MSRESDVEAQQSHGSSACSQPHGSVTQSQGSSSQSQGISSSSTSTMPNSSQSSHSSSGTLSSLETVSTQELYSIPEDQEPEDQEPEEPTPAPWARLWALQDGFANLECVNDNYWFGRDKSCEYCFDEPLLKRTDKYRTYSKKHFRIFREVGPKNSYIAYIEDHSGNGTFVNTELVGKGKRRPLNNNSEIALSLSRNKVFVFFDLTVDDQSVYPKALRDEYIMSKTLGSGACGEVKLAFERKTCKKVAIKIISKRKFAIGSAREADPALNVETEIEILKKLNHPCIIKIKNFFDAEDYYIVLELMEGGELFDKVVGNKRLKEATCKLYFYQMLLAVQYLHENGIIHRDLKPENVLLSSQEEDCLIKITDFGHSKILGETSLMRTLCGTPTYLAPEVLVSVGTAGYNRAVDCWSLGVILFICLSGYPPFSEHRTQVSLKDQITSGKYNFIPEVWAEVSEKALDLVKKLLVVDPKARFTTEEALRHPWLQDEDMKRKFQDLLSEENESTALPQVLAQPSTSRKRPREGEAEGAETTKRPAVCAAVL
MKK1, sequence (Q02750 whole entry): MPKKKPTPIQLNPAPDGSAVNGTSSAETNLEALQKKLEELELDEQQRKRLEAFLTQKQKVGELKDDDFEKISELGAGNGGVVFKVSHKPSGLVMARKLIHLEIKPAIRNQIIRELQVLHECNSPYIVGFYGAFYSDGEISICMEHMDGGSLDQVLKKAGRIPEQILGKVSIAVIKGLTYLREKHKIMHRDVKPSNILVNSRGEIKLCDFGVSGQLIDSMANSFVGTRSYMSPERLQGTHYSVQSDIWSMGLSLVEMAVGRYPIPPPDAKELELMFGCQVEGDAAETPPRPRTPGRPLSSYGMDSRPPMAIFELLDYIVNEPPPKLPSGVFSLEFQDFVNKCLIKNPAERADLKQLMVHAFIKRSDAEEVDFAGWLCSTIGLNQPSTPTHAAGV
TAK1, sequence (O43318 1-303 limits assumed): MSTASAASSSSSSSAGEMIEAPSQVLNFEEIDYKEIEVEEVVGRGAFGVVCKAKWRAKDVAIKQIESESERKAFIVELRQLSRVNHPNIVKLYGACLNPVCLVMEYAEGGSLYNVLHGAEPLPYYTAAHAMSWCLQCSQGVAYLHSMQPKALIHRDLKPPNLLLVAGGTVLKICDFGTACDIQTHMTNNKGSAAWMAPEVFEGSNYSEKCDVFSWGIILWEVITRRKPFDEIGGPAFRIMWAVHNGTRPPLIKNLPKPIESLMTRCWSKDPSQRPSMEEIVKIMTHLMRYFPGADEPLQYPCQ

SMILES: CC(=NNc1nc2ccccc2c2c1[nH]c1ccc(Br)cc12)c1ccc(CN2CCOCC2)cn1.[Cl][Cu][Cl] [compound 8, CuCl2(HL^8)·H2O]
- Thermodynamic solubility (S) ([1]; pH 5): 34.3 µM
- Thermodynamic solubility (S) ([1]; pH 7.4): 10.4 µM
- % remaining activity [2]: 95%
- % remaining activity [3]: 120%
- % remaining activity [4]: 98%
- % remaining activity [5]: 43%
- % remaining activity [6]: 94%
- % remaining activity [7]: 54%
- % remaining activity [8]: 132%
- % remaining activity [9]: 65%
- % remaining activity [10]: 119%
- % remaining activity [11]: 41%
- % remaining activity [12]: 40%
- % remaining activity [13]: 61%
- % remaining activity [14]: 112%
- % remaining activity [15]: 78%
- % remaining activity [16]: 105%
- % remaining activity [17]: 38%
- % remaining activity [18]: 87%
- % remaining activity [19]: 82%
- % remaining activity [20]: 98%
- % remaining activity [21]: 144%
- % remaining activity [22]: 98%
- % remaining activity [23]: 108%
- % remaining activity [24]: 123%
- % remaining activity [25]: 120%
- % remaining activity [26]: 82%
- % remaining activity [27]: 108%
- % remaining activity [28]: 134%
- % remaining activity [29]: 53%
- % remaining activity [30]: 121%
- % remaining activity [31]: 71%
- % remaining activity [32]: 60%
- % remaining activity [33]: 82%
- % remaining activity [34]: 107%
- % remaining activity [35]: 77%
